The supplement of paper PMC10307832

Key:
Experiment in all cases: relative viability (nuclei count vs DMSO), 5 days (fraction); higher = more cells survive
[1] = compound: Cc1nc(Nc2ncc(C(=O)Nc3c(C)cccc3Cl)s2)cc(N2CCN(CCO)CC2)n1 [Dasatinib] + COc1cc2c(Oc3ccc(NC(=O)C4(C(=O)Nc5ccc(F)cc5)CC4)cc3F)ccnc2cc1OCCCN1CCOCC1 [Foretinib] (partner 0.25 µM)
How it was run: (§1)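 For relative viability, nuclei counts in treated wells were divided by those in vehicle wells. Lung cancer cell lines had been pin-tool dosed in 1536-well plates the day after seeding and cultured for 5 days, then fixed and stained in one step (final 0.05% Triton X-100, 1% formaldehyde, 1 ug/ml Hoechst) and imaged at 4×. Doses were one drug alone or a fixed anchor-drug dose plus five library-drug doses (not always all listed) in √10 steps, and values are duplicate-plate medians.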

[2] = compound: Cc1ccc(C(=O)Nc2cccc(C(F)(F)F)c2)cc1Nc1cncc(C(N)=O)c1 [ALW-II-49-7] + C[C@@H](Oc1cc(-c2cnn(C3CCNCC3)c2)cnc1N)c1c(Cl)ccc(F)c1Cl [Crizotinib] (partner 1 µM)
How it was run: as §1

[3] = compound: Cc1ccc(C(=O)Nc2cccc(C(F)(F)F)c2)cc1Nc1cncc(C(N)=O)c1 [ALW-II-49-7] + CC(=O)c1c(C)c2cnc(Nc3ccc(N4CCNCC4)cn3)nc2n(C2CCCC2)c1=O [Palbociclib] (partner 0.5 µM)
How it was run: as §1

[4] = compound: C1CC1C(=O)NC2=NNC3=C2C=CC(=C3)C4=CC(=CC=C4)C(=O)NC5CC5 [XMD13-2] + N=C(N)NC(=N)NCCc1ccccc1 [Phenformin] (partner 250 µM)
How it was run: as §1

Row | Cell Line | relative viability ([1]; first compound 0.005 µM) | relative viability ([1]; first compound 0.01581 µM) | relative viability ([1]; first compound 0.05 µM) | relative viability ([1]; first compound 0.1581 µM) | relative viability ([1]; first compound 0.5 µM) | relative viability ([2]; first compound 0.08 µM) | relative viability ([2]; first compound 0.253 µM) | relative viability ([2]; first compound 0.8 µM) | relative viability ([2]; first compound 2.53 µM) | relative viability ([2]; first compound 8 µM) | relative viability ([3]; first compound 0.08 µM) | relative viability ([3]; first compound 0.253 µM) | relative viability ([3]; first compound 0.8 µM) | relative viability ([3]; first compound 2.53 µM) | relative viability ([3]; first compound 8 µM) | relative viability ([4]; first compound 0.05 µM) | relative viability ([4]; first compound 0.1581 µM) | relative viability ([4]; first compound 0.5 µM) | relative viability ([4]; first compound 1.581 µM) | relative viability ([4]; first compound 5 µM)
1 | NCI-H1975 | 0.918 | 0.817 | 0.722 | 0.439 | 0.225 | 0.838 | 1.04 | 0.852 | 0.912 | 0.893 | 0.608 | 0.58 | 0.459 | 0.59 | 0.44 | 0.436 | 0.395 | 0.407 | 0.42 | 0.401
2 | NCI-H1993 | 0.641 | 0.59 | 0.561 | 0.472 | 0.496 | 0.744 | 1.01 | 0.884 | 1.06 | 1.06 | 0.717 | 0.717 | 0.571 | 0.705 | 0.684 | 0.456 | 0.493 | 0.55 | 0.553 | 0.566
3 | NCI-H2009 | 1.15 | 0.984 | 0.925 | 0.882 | 0.216 | 1.02 | 1.02 | 0.964 | 0.835 | 0.729 | 0.211 | 0.264 | 0.242 | 0.203 | 0.199 | 0.473 | 0.486 | 0.54 | 0.454 | 0.517
4 | NCI-H2023 | 0.642 | 0.749 | 0.434 | 0.377 | 0.297 | 0.703 | 0.714 | 0.554 | 0.622 | 0.729 | 0.325 | 0.344 | 0.36 | 0.4 | 0.428 | 0.561 | 0.434 | 0.399 | 0.428 | 0.426
5 | NCI-H2085 | 0.855 | 0.783 | 0.338 | 0.198 | 0.173 | 0.762 | 0.889 | 0.898 | 0.905 | 0.938 | 0.441 | 0.448 | 0.466 | 0.432 | 0.454 | 0.825 | 0.715 | 0.759 | 0.661 | 0.802
6 | NCI-H2087 | 1.2 | 1.16 | 1.31 | 0.756 | 0.464 | 1.07 | 0.843 | 0.957 | 0.758 | 0.851 | 0.227 | 0.261 | 0.239 | 0.255 | 0.22 | 0.479 | 0.487 | 0.515 | 0.498 | 0.362
7 | NCI-H2126 | 1.18 | 0.799 | 1.2 | 0.852 | 0.425 | 0.857 | 0.976 | 1.06 | 0.998 | 0.987 | 0.367 | 0.332 | 0.337 | 0.365 | 0.374 | 0.531 | 0.474 | 0.522 | 0.522 | 0.553
8 | NCI-H2170 | 0.958 | 0.927 | 0.708 | 0.678 | 0.491 | 1.3 | 1.12 | 1.3 | 1.21 | 1.09 | 0.367 | 0.451 | 0.381 | 0.403 | 0.364 | 0.482 | 0.433 | 0.424 | 0.399 | 0.398
